The results in this text go back to patent US9796711B2, “Substituted pyrazolo[3,4-b]pyridin-6-carboxylic acids and method of use” (AbbVie S.àr.l., priority 2015, dated 2017).

A word on the EC50: it is the concentration that produces a half-maximal response.

In test [1] the target is T1, ΔF508-CFTR (Homo sapiens, UniProt P13569, DEL508-508).
T1 construct: host or cells: CFBE41o-, doxycycline-inducible
Kind of test: CFTR cell surface levels using HRP-tagged ΔF508-CFTR expressing CFBE cells, in the presence of a co-corrector. The format is cell-based. The settings on record: HRP-tagged ΔF508-CFTR expressing CFBE cells, in the presence of 3 μM co-corrector; for EC50: read-out: EC50. The method in brief:
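Cells were seeded with 0.5 μg/mL doxycycline and held 68 h at 37 °C. Test compounds plus 3 μM co-corrector (final 0.1% DMSO) were then added for 20 h at 33 °C. Washed cells received HRP substrate, and luminescence was normalized between DMSO and 3 μM co-corrector controls.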

Test [2] has as its target T1, ΔF508-CFTR. Nature of the test: CFTR cell surface levels using HRP-tagged ΔF508-CFTR expressing CFBE cells, intrinsic corrector capacity. The format is cell-based. The settings on record: for EC50: read-out: EC50. The procedure, abridged:
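Here the cells express ΔF508-CFTR with horseradish peroxidase inserted in extracellular loop 4, so only rescued channel at the surface gives luminescent signal. Compounds act on their own, 20 h at the reduced temperature of 33 °C; values are percent activity relative to DMSO and a 3 μM corrector.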

Where [3] appears, read: HRP-tagged ΔF508-CFTR CFBE41o- cells, compounds alone (intrinsic corrector capacity), 20 hours at 33° C., positive control 3 μM corrector.
[4] abbreviates: HRP-tagged ΔF508-CFTR CFBE41o- cells, compounds alone (intrinsic corrector capacity), 20 hours at 33° C.
[5] abbreviates: HRP-tagged ΔF508-CFTR expressing CFBE cells, intrinsic corrector capacity (no co-corrector), 33° C., 20 hours.

T1 sequence (P13569 with tags, fused parts or gaps DEL508-508): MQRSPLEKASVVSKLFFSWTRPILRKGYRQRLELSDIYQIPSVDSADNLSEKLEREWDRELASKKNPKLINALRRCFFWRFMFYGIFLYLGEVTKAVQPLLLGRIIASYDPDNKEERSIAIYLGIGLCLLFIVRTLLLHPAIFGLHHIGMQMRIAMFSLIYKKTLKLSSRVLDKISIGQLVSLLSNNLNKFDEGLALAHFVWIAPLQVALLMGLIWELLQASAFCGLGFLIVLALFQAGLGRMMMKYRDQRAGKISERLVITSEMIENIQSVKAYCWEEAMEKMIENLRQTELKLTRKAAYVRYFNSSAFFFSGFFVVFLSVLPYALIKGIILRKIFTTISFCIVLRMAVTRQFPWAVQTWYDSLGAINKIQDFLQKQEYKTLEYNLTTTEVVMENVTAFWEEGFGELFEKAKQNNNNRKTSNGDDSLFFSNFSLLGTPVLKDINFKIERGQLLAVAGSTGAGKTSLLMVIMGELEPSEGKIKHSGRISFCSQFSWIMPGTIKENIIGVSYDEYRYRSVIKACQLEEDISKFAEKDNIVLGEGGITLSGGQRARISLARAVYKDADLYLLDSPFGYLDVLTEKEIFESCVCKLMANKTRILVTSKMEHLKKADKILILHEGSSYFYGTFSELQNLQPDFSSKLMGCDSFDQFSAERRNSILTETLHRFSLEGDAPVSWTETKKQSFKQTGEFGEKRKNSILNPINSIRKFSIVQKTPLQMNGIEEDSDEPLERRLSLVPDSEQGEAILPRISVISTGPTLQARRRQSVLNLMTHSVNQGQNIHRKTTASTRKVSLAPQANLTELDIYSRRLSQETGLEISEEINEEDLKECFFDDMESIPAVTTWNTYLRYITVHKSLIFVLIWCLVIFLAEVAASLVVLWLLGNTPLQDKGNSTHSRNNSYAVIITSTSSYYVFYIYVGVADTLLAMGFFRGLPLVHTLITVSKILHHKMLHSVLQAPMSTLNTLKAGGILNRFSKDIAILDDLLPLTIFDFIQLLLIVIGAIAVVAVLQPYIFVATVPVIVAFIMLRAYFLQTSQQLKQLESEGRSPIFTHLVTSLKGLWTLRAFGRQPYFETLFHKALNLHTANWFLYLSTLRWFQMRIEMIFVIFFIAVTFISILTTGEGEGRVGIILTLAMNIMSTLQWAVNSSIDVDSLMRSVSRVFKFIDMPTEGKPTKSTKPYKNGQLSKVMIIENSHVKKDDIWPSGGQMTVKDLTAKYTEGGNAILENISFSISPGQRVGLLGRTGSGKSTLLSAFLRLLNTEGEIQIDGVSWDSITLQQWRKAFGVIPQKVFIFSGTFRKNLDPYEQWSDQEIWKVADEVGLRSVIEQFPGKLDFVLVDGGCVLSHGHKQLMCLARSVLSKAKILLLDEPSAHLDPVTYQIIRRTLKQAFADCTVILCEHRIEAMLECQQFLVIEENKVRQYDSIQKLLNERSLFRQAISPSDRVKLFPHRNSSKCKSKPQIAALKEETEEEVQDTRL

In the case of `CC(C)c1nn(-c2cccc(N(C)C)c2)c2nc(C(=O)O)cc(-c3cnc(N(C)C4CCOCC4)nc3)c12` [compound 200, 1-[3-(dimethylamino)phenyl]-4-{2-[methyl(oxan-4-yl)amino]pyrimidin-5-yl}-3-(propan-2-yl)-1H-pyrazolo[3,4-b]pyridine-6-carboxylic acid], the “% Activation” value was found to be 594.2% in test [1] and 330.83% in test [2] (setting [3]). Further, the figures for the half-maximal effective concentration (EC50) in test [1] and in test [2] (setting [4]) were 514 nM and 438 nM, respectively.
As to `CN(CCCN(C)C1CCCCC1)c1cc(C(=O)O)nc2c1c(C1CCC1)nn2-c1ccccc1` [compound 690, 3-cyclobutyl-4-[{3-[cyclohexyl(methyl)amino]propyl}(methyl)amino]-1-phenyl-1H-pyrazolo[3,4-b]pyridine-6-carboxylic acid], in test [1], the “% Activation” value is listed as 318.25% and the 50% effective concentration (EC50) was found to be 2760 nM. Besides, in test [2] (setting [5]), the “% Activation” value turned out to be 136.1% and the concentration giving a half-maximal response (EC50) turned out to be 1670 nM.
In the same order, the values of `CC(C)N1CCN(C2CCN(c3cc(C(=O)O)nc4c3c(C3CCC3)nn4-c3ccc(F)cc3)CC2)CC1` [compound 879, 3-cyclobutyl-1-(4-fluorophenyl)-4-{4-[4-(propan-2-yl)piperazin-1-yl]piperidin-1-yl}-1H-pyrazolo[3,4-b]pyridine-6-carboxylic acid] are 446.25%, 196 nM, 279.6% and 355 nM.
With `CC(C)c1nn(-c2ccc(F)cc2)c2nc(C(=O)O)cc(N3CCN(CC4CCCN(C)C4)CC3)c12` (stereo not shown) [compound 791, 1-(4-fluorophenyl)-4-{4-[(1-methylpiperidin-3-yl)methyl]piperazin-1-yl}-3-(propan-2-yl)-1H-pyrazolo[3,4-b]pyridine-6-carboxylic acid], in test [1], the “% Activation” value is 307.5% and the EC50 was 1670 nM. Moreover, in test [2] (setting [5]), the “% Activation” value is 79.95% and the concentration for a half-maximal effect (EC50) was 1670 nM.
Turning to `CC(=O)N1CC[C@@H]2CN(c3cc(C(=O)O)nc4c3c(C3CCC3)nn4-c3ccccc3)CC[C@@H]21` (single isomer, unassigned) [compound 587], in test [1], the “% Activation” value worked out at 360.33% and the half-maximal effective concentration (EC50) was 2420 nM. Also, in test [2] (setting [5]), the “% Activation” value is listed as 149.5% and the EC50 was found to be 3330 nM.
In the same order, the values of `CC1OCC(Oc2cc(C(=O)O)nc3c2c(C2CCC2)nn3-c2ccccc2)CO1` (stereo not shown) [compound 493, 3-cyclobutyl-4-[(2-methyl-1,3-dioxan-5-yl)oxy]-1-phenyl-1H-pyrazolo[3,4-b]pyridine-6-carboxylic acid] are 286.5%, 396 nM, 129.05% and 645 nM.
For the compound `Cc1nn(C2CCCCC2)c2nc(C(=O)O)cc(-c3cnc(N4CCOCC4)nc3)c12` [compound 65, 1-cyclohexyl-3-methyl-4-[2-(morpholin-4-yl)pyrimidin-5-yl]-1H-pyrazolo[3,4-b]pyridine-6-carboxylic acid], the “% Activation” value in test [1] was determined as 258.2%; in test [2] (setting [3]) it was 103.02%. Also, the EC50 came out at 2310 nM in test [1] and 3340 nM in test [2] (setting [4]).
For the compound `N#CC1CCN(c2cc(C(=O)O)nc3c2c(C2CCC2)nn3-c2ccccc2)CC1` [compound 410, 4-(4-cyanopiperidin-1-yl)-3-cyclobutyl-1-phenyl-1H-pyrazolo[3,4-b]pyridine-6-carboxylic acid], the “% Activation” value in test [1] is 317.5%; in test [2] (setting [5]), 155.63%. Also, the EC50 stood at 228 nM in test [1] and 557 nM in test [2] (setting [5]).
Turning to `Cc1nn(-c2ccccc2)c2nc(C(=O)O)cc(-c3ccc(N4CC(N(C)C)C4)cc3)c12` [compound 72], the “% Activation” value in test [1] turned out to be 308.1%; in test [2] (setting [3]), 91.87%. Besides, the values for the EC50 in test [1] and in test [2] (setting [4]) were 3340 nM and 2250 nM, respectively.
On to `O=C(O)c1cc(N2CC3CC3C2)c2c(C3CCC3)nn(-c3ccccc3)c2n1` (stereo not shown) [compound 406, 4-(3-azabicyclo[3.1.0]hexan-3-yl)-3-cyclobutyl-1-phenyl-1H-pyrazolo[3,4-b]pyridine-6-carboxylic acid], for which, in test [1], the “% Activation” value came out at 359.55% and the EC50 stood at 641 nM. For the same compound, in test [2] (setting [5]), the “% Activation” value stood at 182.5% and the EC50 worked out at 823 nM.
With `O=C(O)c1cc(N2CCN(CC(F)(F)F)CC2)c2c(C3CCC3)nn(-c3ccccc3)c2n1` [compound 470, 3-cyclobutyl-1-phenyl-4-[4-(2,2,2-trifluoroethyl)piperazin-1-yl]-1H-pyrazolo[3,4-b]pyridine-6-carboxylic acid], the “% Activation” value in test [1] is recorded as 311.25%; in test [2] (setting [5]), 147.5%. Besides, the values for the EC50 in test [1] and in test [2] (setting [5]) were 427 nM and 736 nM, respectively.
Turning to `CC(C)c1nn(-c2ccc(F)cc2)c2nc(C(=O)O)cc(N3CCCN(C(C)C)CC3)c12` [compound 795, 1-(4-fluorophenyl)-3-(propan-2-yl)-4-[4-(propan-2-yl)-1,4-diazepan-1-yl]-1H-pyrazolo[3,4-b]pyridine-6-carboxylic acid], in test [1], the “% Activation” value is listed as 175.3% and the EC50 was determined as 1670 nM. In test [2] (setting [5]), the “% Activation” value came to 47.22% and the concentration giving a half-maximal response (EC50) came to 1670 nM.
On to `CCOCC1(F)CCCN(c2cc(C(=O)O)nc3c2c(C2CCC2)nn3-c2ccccc2)C1` (stereo not shown) [compound 460, 3-cyclobutyl-4-[3-(ethoxymethyl)-3-fluoropiperidin-1-yl]-1-phenyl-1H-pyrazolo[3,4-b]pyridine-6-carboxylic acid], for which, in test [1], the “% Activation” value was determined as 322.2% and the concentration giving a half-maximal response (EC50) was found to be 328 nM. Moreover, in test [2] (setting [5]), the “% Activation” value is 138.15% and the concentration for a half-maximal effect (EC50) turned out to be 642 nM.
With `CC(C)c1nn(C2CCCCC2)c2nc(C(=O)O)cc(-c3ccc(N4CCOCC4)cc3)c12` [compound 54, 1-cyclohexyl-4-[4-(morpholin-4-yl)phenyl]-3-(propan-2-yl)-1H-pyrazolo[3,4-b]pyridine-6-carboxylic acid], the “% Activation” value is recorded as 392.6% in test [1] and 167.9% in test [2] (setting [3]). For the same compound, the half-maximal effective concentration (EC50) in test [1] worked out at 376 nM; in test [2] (setting [4]), 763 nM.
In the same order, the values of `COC1CCN(c2cc(C(=O)O)nc3c2c(C(C)C)nn3-c2cccc(N(C)C)c2)CC1` [compound 330, 1-[3-(dimethylamino)phenyl]-4-(4-methoxypiperidin-1-yl)-3-(propan-2-yl)-1H-pyrazolo[3,4-b]pyridine-6-carboxylic acid] are 509.93%, 326.43%, 197 nM and 405 nM.
In the same order, the values of `CC(C)c1nn(C2CCCCC2)c2nc(C(=O)O)cc(-c3cnc(N4CCOCC4)nc3)c12` [compound 80, 1-cyclohexyl-4-[2-(morpholin-4-yl)pyrimidin-5-yl]-3-(propan-2-yl)-1H-pyrazolo[3,4-b]pyridine-6-carboxylic acid] are 341.92%, 184.8%, 2930 nM and 611 nM.
